Measurements published in patent publication US9662357B2, “Bacterium and extracts of said bacterium and the use of same in dermatology” (PIERRE FABRE DERMO-COSMETIQUE, priority 2010, dated 2017).

Legend:
Type in all cases: cell-based
[1] = system: Bacterium LMB64; assay: Antibiotic sensitivity of bacterium LMB64, zone of inhibition; conditions: disc load given with each antibiotic; for Zone of inhibition diameter (mm) LB ½: LB ½ dilution medium; for Zone of inhibition diameter (mm) LB ⅕: LB ⅕ dilution medium; for Zone of inhibition diameter (mm) R3: R3 medium
[2] = system: MlP-1α; assay: PCR array, NHEK atopic dermatitis phenotype: MlP-1α; conditions: Homo sapiens, read-out: percentage of inhibition MlP-1α
Experimental: (§1) The study was carried out on normal human epidermal keratinocytes (NHEK, K-SFM culture medium) in the context of the induction of an atopic dermatitis phenotype.

[3] = system: Skinkine; assay: PCR array, NHEK atopic dermatitis phenotype: Skinkine; conditions: Homo sapiens, read-out: percentage of inhibition Skinkine
Experimental: as §1

[4] = system: TSLP; assay: PCR array, NHEK atopic dermatitis phenotype: TSLP; conditions: Homo sapiens, read-out: percentage of inhibition TSLP
Experimental: as §1

[5] = system: IL-18; assay: PCR array, NHEK atopic dermatitis phenotype: IL-18; conditions: Homo sapiens, read-out: percentage of inhibition IL-18
Experimental: as §1

[6] = system: IL-8; assay: PCR array, NHEK atopic dermatitis phenotype: IL-8; conditions: Homo sapiens, read-out: percentage of inhibition IL-8
Experimental: as §1

[7] = system: MIP-3α; assay: PCR array, NHEK atopic dermatitis phenotype: MIP-3α; conditions: Homo sapiens, read-out: percentage of inhibition MIP-3α
Experimental: as §1

[8] = system: MDC; assay: PCR array, NHEK atopic dermatitis phenotype: MDC; conditions: Homo sapiens, read-out: percentage of inhibition MDC
Experimental: as §1

[9] = system: IFN-β1; assay: PCR array, NHEK atopic dermatitis phenotype: IFN-β1; conditions: Homo sapiens, read-out: percentage of inhibition IFN-β1
Experimental: as §1

[10] = system: IL-4-R; assay: PCR array, NHEK atopic dermatitis phenotype: IL-4-R; conditions: Homo sapiens, read-out: percentage of inhibition IL-4-R
Experimental: as §1

[11] = system: RARRES3; assay: PCR array, NHEK atopic dermatitis phenotype: RARRES3; conditions: Homo sapiens, read-out: percentage of inhibition RARRES3
Experimental: as §1

[12] = system: RANTES; assay: PCR array, NHEK atopic dermatitis phenotype: RANTES; conditions: Homo sapiens, read-out: percentage of inhibition RANTES
Experimental: as §1

[13] = system: IL-1α; assay: PCR array, NHEK atopic dermatitis phenotype: IL-1α; conditions: Homo sapiens, read-out: percentage of inhibition IL-1α
Experimental: as §1

In the case of `CC1(C)S[C@@H]2[C@H](NC(=O)[C@H](N)c3ccccc3)C(=O)N2[C@H]1C(=O)O` [Ampicillin], the “Zone of inhibition diameter (mm) LB ½” value [1] is reported as 28 mm, the “Zone of inhibition diameter (mm) LB ⅕” value [1] is reported as 29 mm and the “Zone of inhibition diameter (mm) R3” value [1] is reported as 29 mm.

With `O=C(N[C@H](CO)[C@H](O)c1ccc([N+](=O)[O-])cc1)C(Cl)Cl` [Chloramphenicol] the “Zone of inhibition diameter (mm) LB ½” value [1] was 26 mm, the “Zone of inhibition diameter (mm) LB ⅕” value [1] was 24 mm and the “Zone of inhibition diameter (mm) R3” value [1] was 29 mm.

`O=C(O)c1cn(C2CC2)c2cc(N3CCNCC3)c(F)cc2c1=O` [Ciprofloxacin] was tested, and the “Zone of inhibition diameter (mm) LB ⅕” value [1] was 34 mm and the “Zone of inhibition diameter (mm) R3” value [1] was 38 mm.

With `C[C@@H]1C[C@H]2[C@@H]3CCC4=CC(=O)C=C[C@]4(C)[C@@]3(F)[C@@H](O)C[C@]2(C)[C@@]1(O)C(=O)CO` [Dexamethasone] the inhibition at 2 µM [2] was 76%, the inhibition at 2 µM [3] was 59% and the inhibition at 2 µM [4] was 91%. The inhibition at 2 µM [5] was 44%, the inhibition at 2 µM [6] was 75% and the inhibition at 2 µM [7] was 40%. The inhibition at 2 µM [8] was 45%, the inhibition at 2 µM [9] was 49% and the inhibition at 2 µM [10] was 75%. It also gave an inhibition at 2 µM [11] of 28%, an inhibition at 2 µM [12] of 12% and an inhibition at 2 µM [13] of 54%.

In the case of `NC[C@H]1O[C@H](O[C@H]2[C@H](O)[C@@H](O[C@H]3O[C@H](CO)[C@@H](O)[C@H](N)[C@H]3O)[C@H](N)C[C@@H]2N)[C@H](O)[C@@H](O)[C@@H]1O` [Kanamycin], the “Zone of inhibition diameter (mm) LB ½” value [1] is reported as 30 mm, the “Zone of inhibition diameter (mm) LB ⅕” value [1] is reported as 27 mm and the “Zone of inhibition diameter (mm) R3” value [1] is reported as 27 mm.

With `CO[C@H]1/C=C/O[C@@]2(C)Oc3c(C)c(O)c4c(O)c(c(/C=N/N5CCN(C)CC5)c(O)c4c3C2=O)NC(=O)/C(C)=C\C=C\[C@H](C)[C@H](O)[C@@H](C)[C@@H](O)[C@@H](C)[C@H](OC(C)=O)[C@@H]1C` [Rifampicin] the “Zone of inhibition diameter (mm) LB ½” value [1] was 19 mm, the “Zone of inhibition diameter (mm) LB ⅕” value [1] was 15 mm and the “Zone of inhibition diameter (mm) R3” value [1] was 20 mm.

In the case of `[H]/N=C(/N)N[C@H]1[C@H](O)[C@@H](O)[C@H](O[C@@H]2O[C@@H](C)[C@](O)(C=O)[C@H]2O[C@@H]2O[C@@H](CO)[C@H](O)[C@@H](O)[C@@H]2NC)[C@@H](N/C(N)=N\[H])[C@@H]1O` [Streptomycin], the “Zone of inhibition diameter (mm) LB ½” value [1] is reported as 25 mm, the “Zone of inhibition diameter (mm) LB ⅕” value [1] is reported as 24 mm and the “Zone of inhibition diameter (mm) R3” value [1] is reported as 25 mm.

With `CN(C)[C@@H]1C(O)=C(C(N)=O)C(=O)[C@@]2(O)C(O)=C3C(=O)c4c(O)cccc4[C@@](C)(O)[C@H]3C[C@@H]12` [Tetracycline] the “Zone of inhibition diameter (mm) LB ½” value [1] was 25 mm, the “Zone of inhibition diameter (mm) LB ⅕” value [1] was 20 mm and the “Zone of inhibition diameter (mm) R3” value [1] was 30 mm.

`CN[C@H](CC(C)C)C(=O)N[C@H]1C(=O)N[C@@H](CC(N)=O)C(=O)N[C@H]2C(=O)N[C@H]3C(=O)N[C@H](C(=O)N[C@H](C(=O)O)c4cc(O)cc(O)c4-c4cc3ccc4O)[C@H](O)c3ccc(c(Cl)c3)Oc3cc2cc(c3O[C@@H]2O[C@H](CO)[C@@H](O)[C@H](O)[C@H]2O[C@H]2C[C@](C)(N)[C@H](O)[C@H](C)O2)Oc2ccc(cc2Cl)[C@H]1O` [Vancomycin] was tested, and the “Zone of inhibition diameter (mm) LB ½” value [1] was 21 mm, the “Zone of inhibition diameter (mm) LB ⅕” value [1] was 21 mm and the “Zone of inhibition diameter (mm) R3” value [1] was 20 mm.

Penicillin was tested, and the “Zone of inhibition diameter (mm) LB ½” value [1] was 26 mm, the “Zone of inhibition diameter (mm) LB ⅕” value [1] was 20 mm and the “Zone of inhibition diameter (mm) R3” value [1] was 21 mm.

For Polymyxin B, the “Zone of inhibition diameter (mm) LB ½” value [1] was 15 mm, the “Zone of inhibition diameter (mm) LB ⅕” value [1] was 13 mm and the “Zone of inhibition diameter (mm) R3” value [1] was 11 mm.
